Source: patent publication US9212182B2, “Bicyclic sulfonamide compounds as sodium channel inhibitors” (AMGEN INC., priority 2013, dated 2015)

Target: Nav 1.7 (Homo sapiens (Human), UniProt Q15858)
Test: in-vitro Nav 1.7 PX (IC50)
Format: cell-based
Settings: not given

Nav 1.7, sequence (Q15858 whole entry): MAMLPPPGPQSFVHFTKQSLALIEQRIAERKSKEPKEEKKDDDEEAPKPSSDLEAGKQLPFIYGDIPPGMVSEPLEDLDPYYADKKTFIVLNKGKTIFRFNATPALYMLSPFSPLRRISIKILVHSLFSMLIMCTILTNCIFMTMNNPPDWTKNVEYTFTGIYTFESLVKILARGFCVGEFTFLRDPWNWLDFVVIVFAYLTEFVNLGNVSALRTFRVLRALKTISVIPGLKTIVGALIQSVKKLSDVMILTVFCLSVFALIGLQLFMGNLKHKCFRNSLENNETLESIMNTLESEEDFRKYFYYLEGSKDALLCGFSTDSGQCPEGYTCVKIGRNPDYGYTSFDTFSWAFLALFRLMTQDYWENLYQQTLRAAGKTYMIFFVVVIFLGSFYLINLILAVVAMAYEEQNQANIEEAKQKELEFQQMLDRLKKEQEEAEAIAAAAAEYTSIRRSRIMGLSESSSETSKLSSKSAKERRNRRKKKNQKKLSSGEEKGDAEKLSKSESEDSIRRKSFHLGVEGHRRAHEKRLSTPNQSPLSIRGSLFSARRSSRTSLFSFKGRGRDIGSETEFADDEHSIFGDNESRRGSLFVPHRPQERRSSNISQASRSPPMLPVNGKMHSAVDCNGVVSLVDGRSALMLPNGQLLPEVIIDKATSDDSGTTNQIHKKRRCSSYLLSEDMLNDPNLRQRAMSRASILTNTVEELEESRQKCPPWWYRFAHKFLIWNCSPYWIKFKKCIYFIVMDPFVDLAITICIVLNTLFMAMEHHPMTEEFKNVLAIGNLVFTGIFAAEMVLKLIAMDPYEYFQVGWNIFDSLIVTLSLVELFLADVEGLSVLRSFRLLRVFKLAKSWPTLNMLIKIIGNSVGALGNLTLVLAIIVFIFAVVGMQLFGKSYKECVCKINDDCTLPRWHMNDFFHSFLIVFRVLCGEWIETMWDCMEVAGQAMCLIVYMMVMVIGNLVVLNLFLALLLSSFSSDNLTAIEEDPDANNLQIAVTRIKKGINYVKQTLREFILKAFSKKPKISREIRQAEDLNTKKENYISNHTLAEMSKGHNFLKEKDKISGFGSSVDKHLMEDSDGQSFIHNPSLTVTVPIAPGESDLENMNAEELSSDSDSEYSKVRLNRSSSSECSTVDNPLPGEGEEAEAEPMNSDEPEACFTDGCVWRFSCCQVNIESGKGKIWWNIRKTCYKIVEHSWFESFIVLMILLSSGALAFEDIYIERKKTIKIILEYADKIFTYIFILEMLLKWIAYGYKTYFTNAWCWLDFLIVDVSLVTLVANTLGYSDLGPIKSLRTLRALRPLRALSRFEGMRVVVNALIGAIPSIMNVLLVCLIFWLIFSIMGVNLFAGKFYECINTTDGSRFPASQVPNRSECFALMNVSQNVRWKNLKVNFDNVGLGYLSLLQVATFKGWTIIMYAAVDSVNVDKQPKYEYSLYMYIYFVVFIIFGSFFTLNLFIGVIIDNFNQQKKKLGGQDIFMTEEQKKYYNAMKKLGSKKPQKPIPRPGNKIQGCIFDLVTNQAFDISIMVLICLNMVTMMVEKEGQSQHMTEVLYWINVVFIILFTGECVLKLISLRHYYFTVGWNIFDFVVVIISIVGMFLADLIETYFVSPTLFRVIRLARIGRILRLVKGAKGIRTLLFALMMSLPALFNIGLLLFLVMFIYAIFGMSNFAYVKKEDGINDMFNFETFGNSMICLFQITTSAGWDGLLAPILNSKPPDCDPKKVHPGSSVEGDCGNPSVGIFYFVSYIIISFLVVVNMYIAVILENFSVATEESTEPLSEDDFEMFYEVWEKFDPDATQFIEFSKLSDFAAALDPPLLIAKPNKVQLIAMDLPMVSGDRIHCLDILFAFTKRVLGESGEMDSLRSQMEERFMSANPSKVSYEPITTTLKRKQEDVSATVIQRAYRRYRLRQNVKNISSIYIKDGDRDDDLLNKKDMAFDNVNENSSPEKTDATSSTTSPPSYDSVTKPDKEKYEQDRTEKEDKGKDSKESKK

Row | Compound | IC50
1 | COc1cc(-c2cccc(Cl)c2)c(Cl)cc1-n1c(=O)ccc2cc(S(=O)(=O)Nc3ccon3)ccc21 (atropisomer, axis not shown; (P)) [Example 459, (P)-1-(2,3′-dichloro-5-methoxy-[1,1′-biphenyl]-4-yl)-N-(isoxazol-3-yl)-2-oxo-1,2-dihydroquinoline-6-sulfonamide] | 12 nM
2 | COc1cc(-c2ccc(Cl)c(C)c2)c(Cl)cc1-n1c(=O)ccc2cc(S(=O)(=O)Nc3ccon3)ccc21 (atropisomer, axis not shown; (P)) [Example 471, (P)-1-(2,4′-dichloro-5-methoxy-3′-methyl-[1,1′-biphenyl]-4-yl)-N-(isoxazol-3-yl)-2-oxo-1,2-dihydroquinoline-6-sulfonamide] | 8 nM
3 | COc1cc(Br)c(Cl)cc1-n1c(=O)ccc2cc(S(=O)(=O)Nc3ccon3)ccc21 (atropisomer, axis not shown; (P)) [Example 473, (P)-1-(4-bromo-5-chloro-2-methoxyphenyl)-N-(isoxazol-3-yl)-2-oxo-1,2-dihydroquinoline-6-sulfonamide] | 178 nM
4 | COc1ccc(-c2cccc(F)c2)cc1-n1c(=O)ccc2cc(S(=O)(=O)Nc3ccon3)ccc21 (atropisomer, axis not shown; (P)) [Example 483, (P)-1-(3′-fluoro-4-methoxy-3-biphenylyl)-N-3-isoxazolyl-2-oxo-1,2-dihydro-6-quinolinesulfonamide] | 54 nM

Other lines, results leading:

Row | IC50 | Compound
5 | 18 nM | COc1cc(-c2cc(F)cc(Cl)c2)c(F)cc1-n1c(=O)ccc2cc(S(=O)(=O)Nc3ncccn3)ccc21 (atropisomer, axis not shown; (P)) [Example 541, (P)-1-(3′-chloro-2,5′-difluoro-5-methoxy-4-biphenylyl)-2-oxo-N-2-pyrimidinyl-1,2-dihydro-6-quinolinesulfonamide]
6 | 7 nM | COc1cc(-c2cc(F)cc(Cl)c2)c(F)cc1-n1c(=O)ccc2cc(S(=O)(=O)Nc3cccnn3)ccc21 (atropisomer, axis not shown; (P)) [Example 542, (P)-1-(3′-chloro-2,5′-difluoro-5-methoxy-4-biphenylyl)-2-oxo-N-3-pyridazinyl-1,2-dihydro-6-quinolinesulfonamide]

Same assay, conditions: in-vitro PatchXpress (PX)

Row | Compound | IC50
7 | COc1cc(-c2cc(F)cc(Cl)c2)ccc1-n1c(=O)ccc2cc(S(=O)(=O)Nc3cccnn3)ccc21 (atropisomer, axis not shown; (P)) [Example 480, (P)-1-(3′-chloro-5′-fluoro-3-methoxy-4-biphenylyl)-2-oxo-N-3-pyridazinyl-1,2-dihydro-6-quinolinesulfonamide] | 8 nM
8 | COc1cc(-c2cccc(C#N)c2)c(F)cc1-n1c(=O)ccc2cc(S(=O)(=O)Nc3ccon3)ccc21 (atropisomer, axis not shown; (P)) [Example 498, (P)-1-(3′-cyano-2-fluoro-5-methoxy-4-biphenylyl)-N-3-isoxazolyl-2-oxo-1,2-dihydro-6-quinolinesulfonamide] | 34 nM
9 | COc1cc(Cl)cc(-c2cc(OC)c(-n3c(=O)ccc4cc(S(=O)(=O)Nc5ccon5)ccc43)cc2F)c1 (atropisomer, axis not shown; (P)) [Example 501, (P)-1-(3′-chloro-2-fluoro-5,5′-dimethoxy-4-biphenylyl)-N-3-isoxazolyl-2-oxo-1,2-dihydro-6-quinolinesulfonamide] | 4 nM
10 | COc1cc(-c2ccc(Cl)c(F)c2)c(F)cc1-n1c(=O)ccc2cc(S(=O)(=O)Nc3ccon3)ccc21 (atropisomer, axis not shown; (P)) [Example 503, (P)-1-(4′-chloro-2,3′-difluoro-5-methoxy-4-biphenylyl)-N-3-isoxazolyl-2-oxo-1,2-dihydro-6-quinolinesulfonamide] | 1100 nM

Results, then the molecule that gave them:

Row | IC50 | Compound
11 | 8 nM | COc1cc(-c2cc(C)cc(Cl)c2)c(F)cc1-n1c(=O)ccc2cc(S(=O)(=O)Nc3ccon3)ccc21 (atropisomer, axis not shown; (P)) [Example 506, (P)-1-(3′-chloro-2-fluoro-5-methoxy-5′-methyl-4-biphenylyl)-N-3-isoxazolyl-2-oxo-1,2-dihydro-6-quinolinesulfonamide]
12 | 7 nM | COc1cc(-c2ccc(Cl)c(C#N)c2)c(F)cc1-n1c(=O)ccc2cc(S(=O)(=O)Nc3ccon3)ccc21 (atropisomer, axis not shown; (P)) [Example 508, (P)-1-(4′-chloro-3′-cyano-2-fluoro-5-methoxy-4-biphenylyl)-N-3-isoxazolyl-2-oxo-1,2-dihydro-6-quinolinesulfonamide]
13 | 18 nM | COc1cc(-c2cc(F)cc(F)c2F)c(F)cc1-n1c(=O)ccc2cc(S(=O)(=O)Nc3ccon3)ccc21 (atropisomer, axis not shown; (P)) [Example 514, (P)—N-3-isoxazolyl-2-oxo-1-(2,2′,3′,5′-tetrafluoro-5-methoxy-4-biphenylyl)-1,2-dihydro-6-quinolinesulfonamide]
14 | > 10000 nM | COc1cc(-c2cc(F)c(F)cc2F)c(F)cc1-n1c(=O)ccc2cc(S(=O)(=O)Nc3ccon3)ccc21 (atropisomer, axis not shown; (P)) [Example 516, (P)—N-3-isoxazolyl-2-oxo-1-(2,2′,4′,5′-tetrafluoro-5-methoxy-4-biphenylyl)-1,2-dihydro-6-quinolinesulfonamide]
15 | 2000 nM | COc1cc(-c2cc(Cl)cc(C#N)c2)c(F)cc1-n1c(=O)ccc2cc(S(=O)(=O)Nc3ccon3)ccc21 (atropisomer, axis not shown; (P)) [Example 518, (P)-1-(3′-chloro-5′-cyano-2-fluoro-5-methoxy-4-biphenylyl)-N-3-isoxazolyl-2-oxo-1,2-dihydro-6-quinolinesulfonamide]
16 | 26 nM | COc1cc(-c2ccc(C#N)c(Cl)c2)c(F)cc1-n1c(=O)ccc2cc(S(=O)(=O)Nc3ccon3)ccc21 (atropisomer, axis not shown; (P)) [Example 520, (P)-1-(3′-chloro-4′-cyano-2-fluoro-5-methoxy-4-biphenylyl)-N-3-isoxazolyl-2-oxo-1,2-dihydro-6-quinolinesulfonamide]
17 | 9 nM | COc1cc(-c2cccc(C)c2)c(F)cc1-n1c(=O)ccc2cc(S(=O)(=O)Nc3ccon3)ccc21 (atropisomer, axis not shown; (P)) [Example 522, (P)-1-(2-fluoro-5-methoxy-3′-methyl-4-biphenylyl)-N-3-isoxazolyl-2-oxo-1,2-dihydro-6-quinolinesulfonamide]
18 | 25 nM | COc1cc(-c2ccc(C)c(C#N)c2)c(F)cc1-n1c(=O)ccc2cc(S(=O)(=O)Nc3ccon3)ccc21 (atropisomer, axis not shown; (P)) [Example 524, (P)-1-(3′-cyano-2-fluoro-5-methoxy-4′-methyl-4-biphenylyl)-N-3-isoxazolyl-2-oxo-1,2-dihydro-6-quinolinesulfonamide]
19 | 31 nM | COc1cc(-c2cc(C)cc(C#N)c2)c(F)cc1-n1c(=O)ccc2cc(S(=O)(=O)Nc3ccon3)ccc21 (atropisomer, axis not shown; (P)) [Example 526, (P)-1-(3′-cyano-2-fluoro-5-methoxy-5′-methyl-4-biphenylyl)-N-3-isoxazolyl-2-oxo-1,2-dihydro-6-quinolinesulfonamide]
20 | 7 nM | COc1cc(-c2ccc(C)c(Cl)c2)c(F)cc1-n1c(=O)ccc2cc(S(=O)(=O)Nc3ccon3)ccc21 (atropisomer, axis not shown; (P)) [Example 528, (P)-1-(3′-chloro-2-fluoro-5-methoxy-4′-methyl-4-biphenylyl)-N-3-isoxazolyl-2-oxo-1,2-dihydro-6-quinolinesulfonamide]
